Data reported in patent publication US20240365781A1, “SYNERGISTICALLY EFFECTIVE HERBICIDE COMPOSITION COMPRISING PELARGONIC ACID AND FLAZASULFURON” (Belchim Crop Protection NV, priority 2017, published 2024).

How the values were obtained:
Type in all cases: in vivo
Stellaria media = experiment: post-emergence field trial under rows of apple trees, 150-200 L water/ha (Examples 10-12)
Description: (§1) Herbicidal activity was determined by performing a post-emergence test. […] The corresponding mixture was in the form of a spray solution. Besides, spray solutions of individual compositions comprising pelargonic acid or flazasulfuron were used.
(§2) The spray solution was applied on plants of unwanted vegetation present on fields where perennial crops were grown.
(§3) After 5 to 88 days after application of the spray solution, the degree of damage to the unwanted vegetation is rated in % of plants of unwanted vegetation that were killed. Tests were performed on test fields (field trials).

Taraxacum officinalis = experiment: as above
Description: as §1, §2, §3

Sonchus oleracea = experiment: as above
Description: as §1, §2, §3

Capsella bursa-pastoris = experiment: as above
Description: as §1, §2, §3

Poa annua [1] = experiment: as above
Description: as §1, §2, §3

Veronica persicae = experiment: as above
Description: as §1, §2, §3

Bromus oxyodon = experiment: post-emergence field trial under rows of vines, 150-200 L water/ha (Examples 6-9); conditions: flazasulfuron 40 g/ha
Senecio vulgaris = experiment: as above; conditions: flazasulfuron 40 g/ha
Convolvulus arvensis = experiment: as above; conditions: flazasulfuron 40 g/ha
Matricaria chamomilla = experiment: post-emergence test, pot trial (Examples 1-5); conditions: bigger plants, 28 d, PT, pelargonic acid 10880 g/ha, 16 L/ha
Excerpt: (§4) The expected activity of a given combination of two or three herbicides can be calculated as follows according to a calculation method by Colby (cf. COLBY, S. R.: “Calculating synergistic and antagonistic responses of herbicide combinations”, • Weeds 15, pages 20-22, 1967): • If X=% damage by herbicide (A) at an application rate of m g/ha, • Y=% damage by herbicide (B) at an application rate of n g/ha, • E=the expected damage by herbicides (A) and (B) at application rates of m and n […] and, • then for a combination:
(§5) Individual compositions comprising pelargonic acid or flazasulfuron are compared with a herbicide composition according to the invention comprising pelargonic acid and flazasulfuron.
(§6) Herbicidal activity was determined by performing a post-emergence test. […] The corresponding mixture was in the form of a spray liquor. Besides, spray liquors of individual compositions comprising pelargonic acid or flazasulfuron were used.
(§7) Tests were performed on test fields (field trials) or in pots (pot trials).

Trifolium repens = experiment: post-emergence test, pot trial (Examples 1-5); conditions: 28 d, PT; pelargonic acid 10880 g/ha, flazasulfuron 50 g/ha; 16 L/ha
Excerpt: as §4, §5, §6, §7

Setaria pumila = experiment: post-emergence test, pot trial (Examples 1-5); conditions: young plants, 28 d, PT, pelargonic acid 10880 g/ha, 16 L/ha
Excerpt: as §4, §5, §6, §7

Geranium dissectum = experiment: post-emergence test, pot trial (Examples 1-5); conditions: 28 d, PT, pelargonic acid 10880 g/ha, 16 L/ha
Excerpt: as §4, §5, §6, §7

Poa annua [2] = experiment: post-emergence test, pot trial (Examples 1-5); conditions: 28 d, PT; pelargonic acid 10880 g/ha, flazasulfuron 50 g/ha; 16 L/ha
Excerpt: as §4, §5, §6, §7

[3] = 14 d, pelargonic acid 5440 g/ha
[4] = 14 d, pelargonic acid 6800 g/ha
[5] = 14 d, pelargonic acid 8160 g/ha
[6] = 14 d, pelargonic acid 10880 g/ha
[7] = 28 d, pelargonic acid 6800 g/ha
[8] = 28 d, pelargonic acid 8160 g/ha
[9] = 28 d, pelargonic acid 10880 g/ha

SMILES: CCCCCCCCC(=O)O [Pelargonic acid, nonanoic acid]
- herbicidal effect (%) (Stellaria media; Stellaria media/5 d, 5440 g of active compound/ha): 5%
- herbicidal effect (%) (Stellaria media; Stellaria media/5 d, 10880 g of active compound/ha): 89%
- herbicidal effect (%) (Stellaria media; Stellaria media/18 d, 5440 g of active compound/ha): 0%
- herbicidal effect (%) (Stellaria media; Stellaria media/18 d, 8160 g of active compound/ha): 0%
- herbicidal effect (%) (Stellaria media; Stellaria media/18 d, 10880 g of active compound/ha): 0%
- herbicidal effect (%) (Taraxacum officinalis; Taraxacum officinalis/5 d, 5440 g of active compound/ha): 11%
- herbicidal effect (%) (Taraxacum officinalis; Taraxacum officinalis/18 d, 5440 g of active compound/ha): 0%
- herbicidal effect (%) (Taraxacum officinalis; Taraxacum officinalis/18 d, 8160 g of active compound/ha): 0%
- herbicidal effect (%) (Taraxacum officinalis; Taraxacum officinalis/18 d, 10880 g of active compound/ha): 9%
- herbicidal effect (%) (Taraxacum officinalis; Taraxacum officinalis/32 d, 5440 g of active compound/ha): 0%
- herbicidal effect (%) (Taraxacum officinalis; Taraxacum officinalis/32 d, 8160 g of active compound/ha): 0%
- herbicidal effect (%) (Taraxacum officinalis; Taraxacum officinalis/32 d, 10880 g of active compound/ha): 0%
- herbicidal effect (%) (Taraxacum officinalis; Taraxacum officinalis/61 d, 5440 g of active compound/ha): 0%
- herbicidal effect (%) (Taraxacum officinalis; Taraxacum officinalis/61 d, 8160 g of active compound/ha): 0%
- herbicidal effect (%) (Taraxacum officinalis; Taraxacum officinalis/61 d, 10880 g of active compound/ha): 0%
- herbicidal effect (%) (Taraxacum officinalis; Taraxacum officinalis/88 d, 5440 g of active compound/ha): 0%
- herbicidal effect (%) (Taraxacum officinalis; Taraxacum officinalis/88 d, 8160 g of active compound/ha): 0%
- herbicidal effect (%) (Taraxacum officinalis; Taraxacum officinalis/88 d, 10880 g of active compound/ha): 0%
- herbicidal effect (%) (Sonchus oleracea; Sonchus oleracea/6 d, 5440 g of active compound/ha): 25%
- herbicidal effect (%) (Sonchus oleracea; Sonchus oleracea/6 d, 8160 g of active compound/ha): 50%
- herbicidal effect (%) (Sonchus oleracea; Sonchus oleracea/6 d, 10880 g of active compound/ha): 55%
- herbicidal effect (%) (Sonchus oleracea; Sonchus oleracea/16 d, 5440 g of active compound/ha): 48%
- herbicidal effect (%) (Sonchus oleracea; Sonchus oleracea/16 d, 8160 g of active compound/ha): 43%
- herbicidal effect (%) (Sonchus oleracea; Sonchus oleracea/16 d, 10880 g of active compound/ha): 45%
- herbicidal effect (%) (Sonchus oleracea; Sonchus oleracea/30 d, 5440 g of active compound/ha): 40%
- herbicidal effect (%) (Sonchus oleracea; Sonchus oleracea/30 d, 8160 g of active compound/ha): 48%
- herbicidal effect (%) (Sonchus oleracea; Sonchus oleracea/30 d, 10880 g of active compound/ha): 53%
- herbicidal effect (%) (Sonchus oleracea; Sonchus oleracea/57 d, 5440 g of active compound/ha): 0%
- herbicidal effect (%) (Sonchus oleracea; Sonchus oleracea/57 d, 8160 g of active compound/ha): 0%
- herbicidal effect (%) (Sonchus oleracea; Sonchus oleracea/57 d, 10880 g of active compound/ha): 0%
- herbicidal effect (%) (Sonchus oleracea; Sonchus oleracea/78 d, 5440 g of active compound/ha): 0%
- herbicidal effect (%) (Sonchus oleracea; Sonchus oleracea/78 d, 8160 g of active compound/ha): 0%
- herbicidal effect (%) (Sonchus oleracea; Sonchus oleracea/78 d, 10880 g of active compound/ha): 0%
- herbicidal effect (%) (Capsella bursa-pastoris; Capsella bursa-pastoris/6 d, 5440 g of active compound/ha): 18%
- herbicidal effect (%) (Capsella bursa-pastoris; Capsella bursa-pastoris/6 d, 8160 g of active compound/ha): 45%
- herbicidal effect (%) (Capsella bursa-pastoris; Capsella bursa-pastoris/6 d, 10880 g of active compound/ha): 45%
- herbicidal effect (%) (Capsella bursa-pastoris; Capsella bursa-pastoris/16 d, 5440 g of active compound/ha): 53%
- herbicidal effect (%) (Capsella bursa-pastoris; Capsella bursa-pastoris/16 d, 8160 g of active compound/ha): 40%
- herbicidal effect (%) (Capsella bursa-pastoris; Capsella bursa-pastoris/16 d, 10880 g of active compound/ha): 55%
- herbicidal effect (%) (Capsella bursa-pastoris; Capsella bursa-pastoris/30 d, 5440 g of active compound/ha): 55%
- herbicidal effect (%) (Capsella bursa-pastoris; Capsella bursa-pastoris/30 d, 8160 g of active compound/ha): 53%
- herbicidal effect (%) (Capsella bursa-pastoris; Capsella bursa-pastoris/30 d, 10880 g of active compound/ha): 60%
- herbicidal effect (%) (Capsella bursa-pastoris; Capsella bursa-pastoris/57 d, 5440 g of active compound/ha): 0%
- herbicidal effect (%) (Capsella bursa-pastoris; Capsella bursa-pastoris/57 d, 8160 g of active compound/ha): 0%
- herbicidal effect (%) (Capsella bursa-pastoris; Capsella bursa-pastoris/57 d, 10880 g of active compound/ha): 0%
- herbicidal effect (%) (Poa annua [1]; Poa annua/6 d, 5440 g of active compound/ha): 23%
- herbicidal effect (%) (Poa annua [1]; Poa annua/6 d, 8160 g of active compound/ha): 40%
- herbicidal effect (%) (Poa annua [1]; Poa annua/6 d, 10880 g of active compound/ha): 45%
- herbicidal effect (%) (Poa annua [1]; Poa annua/16 d, 5440 g of active compound/ha): 55%
- herbicidal effect (%) (Poa annua [1]; Poa annua/16 d, 8160 g of active compound/ha): 58%
- herbicidal effect (%) (Poa annua [1]; Poa annua/16 d, 10880 g of active compound/ha): 60%
- herbicidal effect (%) (Poa annua [1]; Poa annua/30 d, 5440 g of active compound/ha): 53%
- herbicidal effect (%) (Poa annua [1]; Poa annua/30 d, 8160 g of active compound/ha): 55%
- herbicidal effect (%) (Poa annua [1]; Poa annua/30 d, 10880 g of active compound/ha): 65%
- herbicidal effect (%) (Poa annua [1]; Poa annua/57 d, 5440 g of active compound/ha): 0%
- herbicidal effect (%) (Poa annua [1]; Poa annua/57 d, 8160 g of active compound/ha): 0%
- herbicidal effect (%) (Poa annua [1]; Poa annua/57 d, 10880 g of active compound/ha): 0%
- herbicidal effect (%) (Poa annua [1]; Poa annua/78 d, 5440 g of active compound/ha): 0%
- herbicidal effect (%) (Poa annua [1]; Poa annua/78 d, 8160 g of active compound/ha): 0%
- herbicidal effect (%) (Poa annua [1]; Poa annua/78 d, 10880 g of active compound/ha): 1%
- herbicidal effect (%) (Veronica persicae; Veronica persicae/7 d, 5440 g of active compound/ha): 56%
- herbicidal effect (%) (Veronica persicae; Veronica persicae/7 d, 8160 g of active compound/ha): 70%
- herbicidal effect (%) (Veronica persicae; Veronica persicae/7 d, 10880 g of active compound/ha): 73%
- herbicidal effect (%) (Veronica persicae; Veronica persicae/16 d, 5440 g of active compound/ha): 30%
- herbicidal effect (%) (Veronica persicae; Veronica persicae/16 d, 8160 g of active compound/ha): 48%
- herbicidal effect (%) (Veronica persicae; Veronica persicae/16 d, 10880 g of active compound/ha): 45%
- herbicidal effect (%) (Veronica persicae; Veronica persicae/26 d, 5440 g of active compound/ha): 0%
- herbicidal effect (%) (Veronica persicae; Veronica persicae/26 d, 8160 g of active compound/ha): 0%
- herbicidal effect (%) (Veronica persicae; Veronica persicae/26 d, 10880 g of active compound/ha): 0%
- herbicidal effect (%) (Veronica persicae; Veronica persicae/59 d, 5440 g of active compound/ha): 0%
- herbicidal effect (%) (Veronica persicae; Veronica persicae/59 d, 8160 g of active compound/ha): 0%
- herbicidal effect (%) (Veronica persicae; Veronica persicae/59 d, 10880 g of active compound/ha): 0%
- herbicidal effect (Bromus oxyodon; 7 d, pelargonic acid 5440 g/ha): 10%
- herbicidal effect (Bromus oxyodon; 7 d, pelargonic acid 6800 g/ha): 11%
- herbicidal effect (Bromus oxyodon; 7 d, pelargonic acid 8160 g/ha): 15%
- herbicidal effect (Bromus oxyodon; 7 d, pelargonic acid 10880 g/ha): 18%
- herbicidal effect (Bromus oxyodon; [3]): 11%
- herbicidal effect (Bromus oxyodon; [4]): 16%
- herbicidal effect (Bromus oxyodon; [5]): 20%
- herbicidal effect (Bromus oxyodon; [6]): 23%
- herbicidal effect (Bromus oxyodon; 28 d, pelargonic acid 5440 g/ha): 8%
- herbicidal effect (Bromus oxyodon; [7]): 11%
- herbicidal effect (Bromus oxyodon; [8]): 16%
- herbicidal effect (Bromus oxyodon; [9]): 18%
- herbicidal effect (Senecio vulgaris; 7 d, pelargonic acid 5440 g/ha): 83%
- herbicidal effect (Senecio vulgaris; 7 d, pelargonic acid 6800 g/ha): 89%
- herbicidal effect (Senecio vulgaris; [3]): 80%
- herbicidal effect (Senecio vulgaris; [4]): 89%
- herbicidal effect (Senecio vulgaris; [5]): 98%
- herbicidal effect (Senecio vulgaris; 31 d, pelargonic acid 5440 g/ha): 60%
- herbicidal effect (Senecio vulgaris; 31 d, pelargonic acid 6800 g/ha): 60%
- herbicidal effect (Senecio vulgaris; 31 d, pelargonic acid 8160 g/ha): 91%
- herbicidal effect (Senecio vulgaris; 31 d, pelargonic acid 10880 g/ha): 90%
- herbicidal effect (Senecio vulgaris; 58 d, pelargonic acid 5440 g/ha): 0%
- herbicidal effect (Senecio vulgaris; 58 d, pelargonic acid 8160 g/ha): 10%
- herbicidal effect (Senecio vulgaris; 58 d, pelargonic acid 10880 g/ha): 15%
- herbicidal effect (Convolvulus arvensis; 7 d, pelargonic acid 5440 g/ha): 13%
- herbicidal effect (Convolvulus arvensis; 7 d, pelargonic acid 6800 g/ha): 0%
- herbicidal effect (Convolvulus arvensis; 7 d, pelargonic acid 8160 g/ha): 19%
- herbicidal effect (Convolvulus arvensis; [3]): 13%
- herbicidal effect (Convolvulus arvensis; [4]): 0%
- herbicidal effect (Convolvulus arvensis; [5]): 23%
- herbicidal effect (Convolvulus arvensis; [6]): 43%
- herbicidal effect (Convolvulus arvensis; [7]): 0%
- herbicidal effect (Convolvulus arvensis; [8]): 0%
- herbicidal effect (Convolvulus arvensis; [9]): 38%
- herbicidal effect (Convolvulus arvensis; 65 d, pelargonic acid 5440 g/ha): 0%
- herbicidal effect (Convolvulus arvensis; 65 d, pelargonic acid 6800 g/ha): 0%
- herbicidal effect (Convolvulus arvensis; 65 d, pelargonic acid 8160 g/ha): 0%
- herbicidal effect (Convolvulus arvensis; 65 d, pelargonic acid 10880 g/ha): 0%
- herbicidal effect (Matricaria chamomilla; flazasulfuron 25 g/ha): 0%
- herbicidal effect (Matricaria chamomilla; flazasulfuron 50 g/ha): 0%
- herbicidal effect (Trifolium repens): 0%
- herbicidal effect (Setaria pumila; flazasulfuron 25 g/ha): 40%
- herbicidal effect (Setaria pumila; flazasulfuron 50 g/ha): 40%
- herbicidal effect (Geranium dissectum; bigger plants, flazasulfuron 50 g/ha): 24%
- herbicidal effect (Geranium dissectum; young plants, flazasulfuron 25 g/ha): 32%
- herbicidal effect (Geranium dissectum; young plants, flazasulfuron 50 g/ha): 32%
- herbicidal effect (Poa annua [2]): 0%
